According to ChEMBL document CHEMBL1133328, “Heterocyclic bibenzimidazole derivatives as topoisomerase I inhibitors” (Bioorg Med Chem Lett, 2000):

How the values were obtained:
[1] = target: T1, DNA topoisomerase 1 (Homo sapiens) (UniProt P11387); assay: Relative effective concentration that produces the same degree of cleavage on the plasmid DNA in the presence of human topoisomerase-1
T1 sequence (whole entry): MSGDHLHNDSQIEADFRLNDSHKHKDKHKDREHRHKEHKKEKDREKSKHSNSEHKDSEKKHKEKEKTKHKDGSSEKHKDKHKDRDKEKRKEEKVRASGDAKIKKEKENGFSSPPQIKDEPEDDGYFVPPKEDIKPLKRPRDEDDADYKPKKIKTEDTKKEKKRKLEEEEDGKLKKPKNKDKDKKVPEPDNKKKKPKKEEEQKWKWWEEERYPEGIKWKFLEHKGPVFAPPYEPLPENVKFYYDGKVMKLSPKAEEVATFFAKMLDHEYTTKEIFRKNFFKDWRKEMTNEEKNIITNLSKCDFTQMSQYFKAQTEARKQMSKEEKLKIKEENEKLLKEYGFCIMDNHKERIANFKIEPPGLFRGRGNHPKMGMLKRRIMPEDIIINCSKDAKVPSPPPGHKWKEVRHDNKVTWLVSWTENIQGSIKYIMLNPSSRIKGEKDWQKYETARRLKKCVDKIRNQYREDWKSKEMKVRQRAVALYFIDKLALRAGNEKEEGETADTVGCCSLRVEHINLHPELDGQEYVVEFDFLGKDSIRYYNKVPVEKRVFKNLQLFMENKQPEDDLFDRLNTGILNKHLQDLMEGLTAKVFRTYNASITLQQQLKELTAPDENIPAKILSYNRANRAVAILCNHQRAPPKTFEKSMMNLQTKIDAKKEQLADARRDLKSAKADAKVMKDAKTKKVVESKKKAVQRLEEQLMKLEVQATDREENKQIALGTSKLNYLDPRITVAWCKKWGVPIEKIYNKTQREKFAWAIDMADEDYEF

[2] = tested on: Nucleic Acid; assay: Compound-poly(dA).poly(dT) association constant at the melting temperature (80 degree C) of the compound-DNA complex was determined; type: nucleic-acid assay
[3] = tested on: Nucleic Acid; assay: Compound-poly(dA).poly(dT) association constant at the melting temperature (73.4 degree C) DNA complex was determined; type: nucleic-acid assay
[4] = tested on: Nucleic Acid; assay: Compound-poly(dA).poly(dT) association constant at the melting temperature (81.5 degree C) DNA complex was determined; type: nucleic-acid assay

SMILES | Topoisomerase-I activity [1] | K Tm [2] | K Tm [3] | K Tm [4]
c1ccc(-c2ccc3[nH]c(-c4ccc5[nH]c(-c6ccc7[nH]nnc7c6)nc5c4)nc3c2)cc1 | 1 |  |  | 
c1ccc(-c2ccc3[nH]c(-c4ccc5[nH]c(-c6ccc7cc[nH]c7c6)nc5c4)nc3c2)cc1 | 5 | 1.9e+08 M⁻¹ |  | 
c1ccc(-c2ccc3[nH]c(-c4ccc5[nH]c(-c6ccc7nccnc7c6)nc5c4)nc3c2)cc1 | > 100 |  |  | 
Oc1nc2ccc(-c3nc4cc(-c5nc6cc(-c7ccccc7)ccc6[nH]5)ccc4[nH]3)cc2nc1O | 1 |  |  | 
c1ccc(-c2ccc3[nH]c(-c4ccc5[nH]c(-c6ccc7[nH]ccc7c6)nc5c4)nc3c2)cc1 | 50 |  | 3.5e+07 M⁻¹ | 
c1ccc(-c2ccc3[nH]c(-c4ccc5[nH]c(-c6ccc7[nH]cnc7c6)nc5c4)nc3c2)cc1 | 1 |  |  | 2.8e+08 M⁻¹
